In patent publication US20220372040A1, “METTL3 MODULATORS” (Accent Therapeutics, Inc., priority 2020, published 2022):

Columns and labels:
METTL16 = target: T1, METTL16 (Homo sapiens, UniProt Q86W50); assay: METTL16 assay (3H-SAM flashplate scintillation); type: biochemical; conditions: METTL16 100 nM, RNA 50 nM, 3H-SAM 200 nM, SAM 800 nM, 20 min
T1 sequence (Q86W50 1-562): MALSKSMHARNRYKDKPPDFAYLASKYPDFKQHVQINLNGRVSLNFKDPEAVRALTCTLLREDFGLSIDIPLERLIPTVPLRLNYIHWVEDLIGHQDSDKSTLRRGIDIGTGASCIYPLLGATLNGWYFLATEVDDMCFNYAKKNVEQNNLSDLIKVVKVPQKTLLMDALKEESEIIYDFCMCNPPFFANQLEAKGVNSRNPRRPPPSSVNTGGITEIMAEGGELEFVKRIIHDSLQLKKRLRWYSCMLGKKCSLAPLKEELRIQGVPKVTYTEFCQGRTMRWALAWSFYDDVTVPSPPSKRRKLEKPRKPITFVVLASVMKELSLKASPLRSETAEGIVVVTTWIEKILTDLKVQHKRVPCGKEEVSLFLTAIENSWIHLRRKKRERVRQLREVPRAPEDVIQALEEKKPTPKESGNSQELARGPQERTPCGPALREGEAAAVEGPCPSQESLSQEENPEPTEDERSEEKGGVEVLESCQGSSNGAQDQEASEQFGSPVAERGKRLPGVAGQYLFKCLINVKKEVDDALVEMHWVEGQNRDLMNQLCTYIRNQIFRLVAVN
Experimental: (§1) Assays were performed in a 25 μl-volume in 384-well V-bottom polypropylene microplates (Greiner Bio-One, cat. No. 781280) at ambient temperature. Optimized 1× assay buffer was 20 mM HEPES pH 7.5, 50 mM KCl, 1 mM DTT, 0.01% Tween, 0.01% BSG, 0.004 U/μl RNAseOUT (cat. No. 10777019, ThermoFisher Scientific, Waltham, Mass.). For compound screening METTL16 (final concentration, f.c.=100 nM) was added using a Multidrop Combi (ThermoFisher Scientific, Waltham, Mass.) and preincubated for 5 min. Reactions were started by adding 3′ biotinylated RNA ([…]-biotin) (f.c.=50 nM), 3H-SAM (f.c.=200 nM) and non-radiolabeled SAM (f.c.=800 nM) substrates. Reactions proceeded for 20 minutes and were quenched with excess non-radioactive SAM (f.c.=100 μM). The reactions were then transferred to streptavidin-coated flashplates and incubated for 2 hours at 25° C. Following two washing cycles with 0.1% Tween-20, the plates were sealed and read on a TopCount (PerkinElmer, Waltham, Mass.) plate-based scintillation counter. For determination of kinetic parameters, reaction times were optimized so that measurements were taken during the initial velocity phase of the reaction.

METTL1/WDR4 = METTL1/WDR4 (Homo sapiens, UniProt Q9UBP6); assay: METTL1 assay (3H-SAM flashplate scintillation); type: biochemical; conditions: METTL1/WDR4 6.25 nM, RNA 25 nM, 3H-SAM 60 nM, 20 min; read-out: METTL1 IC50
Experimental: as §1, with “KCl, 250 μM MgCl2,” for “KCl,”, “METTL1/WDR4” for “METTL16”, “f.c.=6.25” for “f.c.=100”, “(f.c.=25” for “(f.c.=50 nM), 3H-SAM (f.c.=200”, “3H-SAM (f.c.=60” for “non-radiolabeled SAM (f.c.=800”, “(f.c.=15” for “(f.c.=100”

METTL3/METTL14 = METTL3/METTL14 (Homo sapiens, UniProt Q86U44); assay: METTL3-14 standard enzyme assay (3H-SAM flashplate scintillation); type: biochemical; conditions: METTL3/METTL14 2.5 nM, RNA 100 nM, 3H-SAM 100 nM, 30 min
Outline: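 METTL3/METTL14 (2.5 nM final) preincubated 5 min with compound in 20 mM HEPES pH 7.5, 50 mM KCl, 250 μM MgCl2, 1 mM DTT, ambient temperature; started with 100 nM 3′-biotinylated RNA (UCUGGACUAAA) and 100 nM 3H-SAM. After 30 min, quenched with 15 μM cold SAM; methylated RNA captured on streptavidin flashplates and counted by scintillation.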

PRMT5-MEP50 = PRMT5-MEP50 (Homo sapiens, UniProt O14744); assay: PRMT5 assay (3H-SAM flashplate scintillation); type: biochemical; conditions: PRMT5-MEP50 2.5 nM, histone H4 peptide 100 nM, 3H-SAM 250 nM, 60 min
Outline: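 PRMT5-MEP50 (2.5 nM final) preincubated 5 min with compound, then reacted 60 min at ambient temperature with 100 nM biotinylated N-acetyl histone H4 peptide and 250 nM 3H-SAM in 20 mM Tris-HCl pH 8.0, 1 mM DTT, 0.01% Tween. Quenched with 15 μM cold SAM; methylated peptide captured on streptavidin flashplates, scintillation counted.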

MOLM-13 cells = assay: MOLM-13 96 Hour cell proliferation assay (Cell Titer-Glo); type: cell-based; conditions: Homo sapiens
Experimental: MOLM-13 96 Hour Cell Proliferation Assay
MOLM-13 (DSMZ) cells were seeded at 600 cells per well in a volume of 44 μL in a Greiner Bio-One CELLSTAR™ 384 Well Polystyrene Cell Culture clear bottom microplate in RPMI 1640 media containing 10% fetal bovine serum using a Multidrop Combi (ThermoFisher Scientific). Cells were incubated overnight at 37° C. in a humidified tissue culture incubator. To prevent evaporation or to reduce edge effect, add 50 μL or more H2O to an empty plate, cover, and place on top of the cell plates. The Mosquito® HTS Liquid Handler was used to make a compound/media intermediate plate by aliquoting 1 μL of compound from the initial compound dilution plate (concentrations ranging from 10.0 mM to 38.0 nM in 100% DMSO) into Bio-One 384-well polypropylene conical bottom microplate containing 49 μL of media containing the appropriate serum (50-fold dilution, 2% DMSO, compound concentrations ranging from 200.0 μM and […]). The Apricot liquid handling system was used to transfer 6.2 μL compounds from the intermediate plate into the seeding plate containing 44 μL cells (8-fold dilution spanning concentrations 25.0 μM to […], 0.25% DMSO final), and placed in a humidified tissue culture incubator at 37° C. After 96 hours, 25 μL of Cell Titer-Glo reagent (Promega) was added to each well using an Integra liquid handling system. The plate was protected from light using TopSeal-A (Black) film over the entire plate, added White Bottom seal film on the bottom of the entire plate for a better reading on the Envision, and placed on an IKA plate shaker for at 300 rpm for 10 minutes at room temperature. The plate was read on an EnVision plate reader (Perkin Elmer) using the Ultra Sensitive Luminescence protocol. Data analysis was performed by normalizing the raw luminescence units to an average of the positive control values for staurosporine (100% cell death) and the negative control values for DMSO (0% cell death). An IC50 was calculated using a 4-parameter logistic nonlinear regression model in GraphPad Prism.

METTL1/WDR4, sequence (Q9UBP6 whole entry, species assumed): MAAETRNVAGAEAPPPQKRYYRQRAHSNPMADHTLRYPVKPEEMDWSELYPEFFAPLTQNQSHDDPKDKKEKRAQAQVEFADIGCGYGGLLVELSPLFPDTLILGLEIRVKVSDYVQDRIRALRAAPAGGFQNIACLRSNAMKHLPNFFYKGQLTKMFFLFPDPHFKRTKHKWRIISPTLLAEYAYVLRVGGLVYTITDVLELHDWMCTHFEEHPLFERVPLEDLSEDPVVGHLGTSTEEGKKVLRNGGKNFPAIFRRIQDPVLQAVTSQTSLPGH
METTL1/WDR4, sequence (P57081 whole entry partner, species assumed): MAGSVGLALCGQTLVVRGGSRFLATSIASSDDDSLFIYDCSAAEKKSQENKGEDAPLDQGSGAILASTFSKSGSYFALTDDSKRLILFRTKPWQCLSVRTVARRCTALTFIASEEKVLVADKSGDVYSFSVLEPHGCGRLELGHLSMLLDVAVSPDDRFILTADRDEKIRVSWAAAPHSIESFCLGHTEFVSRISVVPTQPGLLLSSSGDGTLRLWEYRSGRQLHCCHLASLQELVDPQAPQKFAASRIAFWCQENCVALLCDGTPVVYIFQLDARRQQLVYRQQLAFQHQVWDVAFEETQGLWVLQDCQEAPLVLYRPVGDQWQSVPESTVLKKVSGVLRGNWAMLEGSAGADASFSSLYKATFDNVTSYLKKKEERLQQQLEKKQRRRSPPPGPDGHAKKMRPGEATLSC
METTL3/METTL14, sequence (Q86U44 whole entry, species assumed): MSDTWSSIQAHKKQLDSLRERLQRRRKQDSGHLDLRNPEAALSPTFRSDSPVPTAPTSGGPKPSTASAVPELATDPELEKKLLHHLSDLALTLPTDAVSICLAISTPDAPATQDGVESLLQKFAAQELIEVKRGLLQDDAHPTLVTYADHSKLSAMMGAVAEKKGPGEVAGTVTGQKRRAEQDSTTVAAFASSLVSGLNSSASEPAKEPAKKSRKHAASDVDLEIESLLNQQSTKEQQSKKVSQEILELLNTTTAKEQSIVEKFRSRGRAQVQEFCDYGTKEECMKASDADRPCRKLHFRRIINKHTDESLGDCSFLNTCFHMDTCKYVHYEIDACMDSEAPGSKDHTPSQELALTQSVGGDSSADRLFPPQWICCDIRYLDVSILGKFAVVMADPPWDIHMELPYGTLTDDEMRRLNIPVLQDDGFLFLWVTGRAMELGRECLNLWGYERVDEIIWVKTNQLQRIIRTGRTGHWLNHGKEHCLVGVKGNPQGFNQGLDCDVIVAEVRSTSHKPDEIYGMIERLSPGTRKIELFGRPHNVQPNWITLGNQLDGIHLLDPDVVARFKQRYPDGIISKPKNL
METTL3/METTL14, sequence (Q9HCE5 whole entry partner, species assumed): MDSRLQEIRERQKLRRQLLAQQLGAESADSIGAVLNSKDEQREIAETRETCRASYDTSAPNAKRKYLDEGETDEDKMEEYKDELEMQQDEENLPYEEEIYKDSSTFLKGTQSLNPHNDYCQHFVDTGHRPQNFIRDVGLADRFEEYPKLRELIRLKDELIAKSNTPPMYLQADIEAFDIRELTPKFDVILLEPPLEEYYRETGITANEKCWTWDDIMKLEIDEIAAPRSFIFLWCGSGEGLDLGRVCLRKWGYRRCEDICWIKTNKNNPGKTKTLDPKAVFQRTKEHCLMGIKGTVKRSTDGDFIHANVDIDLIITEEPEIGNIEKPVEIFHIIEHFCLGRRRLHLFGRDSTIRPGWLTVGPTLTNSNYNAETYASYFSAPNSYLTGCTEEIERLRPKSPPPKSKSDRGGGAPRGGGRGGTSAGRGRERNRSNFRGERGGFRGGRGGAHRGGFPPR
PRMT5-MEP50, sequence (O14744 whole entry): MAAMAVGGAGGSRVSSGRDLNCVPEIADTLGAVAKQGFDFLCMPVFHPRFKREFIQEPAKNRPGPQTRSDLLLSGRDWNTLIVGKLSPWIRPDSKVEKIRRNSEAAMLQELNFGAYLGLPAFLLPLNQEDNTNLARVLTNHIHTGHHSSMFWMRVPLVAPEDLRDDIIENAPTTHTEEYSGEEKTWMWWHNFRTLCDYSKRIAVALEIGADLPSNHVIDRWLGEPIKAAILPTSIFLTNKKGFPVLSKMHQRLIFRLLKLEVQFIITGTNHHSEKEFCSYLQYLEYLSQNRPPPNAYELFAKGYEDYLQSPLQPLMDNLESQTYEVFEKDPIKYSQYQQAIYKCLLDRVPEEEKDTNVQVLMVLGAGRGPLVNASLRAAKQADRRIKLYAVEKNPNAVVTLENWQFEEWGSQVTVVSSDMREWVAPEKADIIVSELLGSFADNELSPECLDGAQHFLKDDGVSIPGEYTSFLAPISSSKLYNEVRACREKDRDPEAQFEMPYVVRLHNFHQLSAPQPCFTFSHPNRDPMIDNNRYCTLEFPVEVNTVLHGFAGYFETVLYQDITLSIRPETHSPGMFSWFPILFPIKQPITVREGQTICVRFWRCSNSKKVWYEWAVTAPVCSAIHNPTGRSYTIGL
PRMT5-MEP50, sequence (Q9BQA1 whole entry partner): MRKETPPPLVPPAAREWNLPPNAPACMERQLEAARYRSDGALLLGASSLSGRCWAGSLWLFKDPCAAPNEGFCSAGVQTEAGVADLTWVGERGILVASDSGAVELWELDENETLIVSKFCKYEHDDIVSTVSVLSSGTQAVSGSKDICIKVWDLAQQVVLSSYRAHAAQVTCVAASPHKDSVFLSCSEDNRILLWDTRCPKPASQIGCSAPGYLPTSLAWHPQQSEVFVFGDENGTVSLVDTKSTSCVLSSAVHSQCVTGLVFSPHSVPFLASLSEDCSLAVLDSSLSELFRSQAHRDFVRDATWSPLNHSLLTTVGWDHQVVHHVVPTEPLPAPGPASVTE

| SMILES | IC50 (METTL16) [nM] | IC50 (METTL1/WDR4) [nM] | IC50 (METTL3/METTL14) [nM] | IC50 (PRMT5-MEP50) [nM] | IC50 (MOLM-13 cells) [nM] |
| --- | --- | --- | --- | --- | --- |
| CNc1ccc2ccc(OCc3cccc(-n4cc(C5CCCC5)c5c(N)ncnc54)c3)cc2n1 [Compound I-86] | > 1000 | > 1000 | 10 to 100 | > 1000 |  |
| CCc1cc(N2CCN(C)CC2)c2ccc(OCc3cncc(-n4ccc5c(N)ncnc54)c3)cc2n1 [Compound I-107] |  |  | < 10 | > 1000 | < 1000 |
| CCc1cc(N2CCCC2)c2ccc(OCc3cncc(-n4ccc5c(N)ncnc54)c3)cc2n1 [Compound I-109] |  |  | < 10 | > 1000 | < 1000 |
| CNc1ccc2ccc(OCc3cc(C#N)cc(-n4ccc5c(N)ncnc54)c3)cc2n1 [Compound I-119] | > 1000 | > 1000 | 100 to 1000 | > 1000 |  |
| C[C@H]1CCN1c1ccc2ccc(OCc3cncc(-n4cc(C5CCCC5)c5c(N)ncnc54)c3)cc2n1 [Compound I-125] | > 1000 | > 1000 | 10 to 100 | > 1000 |  |
| CCCc1cc(N)c2ccc(CCc3cncc(-n4cc(-c5ccn(C)n5)c5c(N)ncnc54)c3)cc2n1 [Compound I-131] |  |  | < 10 |  | < 1000 |
| CCc1cc(NCCOC)c2ncc(CCc3cncc(-n4cc(-c5ccn(C)n5)c5c(N)ncnc54)c3)cc2n1 [Compound I-132] |  |  | < 10 |  | < 1000 |
| CCNc1ccc2ccc(OCc3cncc(-n4cc([C@H]5CCCO5)c5c(N)ncnc54)c3)cc2n1 [Compound I-134] |  |  | < 10 |  | < 1000 |
| CCc1cc(NCCOC)c2ccc(OCc3cncc(-n4cc([C@@H]5CCCO5)c5c(N)ncnc54)c3)cc2n1 [Compound I-141] |  |  | < 10 |  | < 1000 |
| CCc1cc(N2CCOCC2)c2ccc(OCc3cncc(-n4cc([C@H]5CCCO5)c5c(N)ncnc54)c3)cc2n1 [Compound I-142] |  |  | 10 to 100 |  | < 1000 |
| CCc1cc(N2CCOCC2)c2ccc(OCc3cncc(-n4cc([C@@H]5CCCO5)c5c(N)ncnc54)c3)cc2n1 [Compound I-143] |  |  | < 10 |  | < 1000 |
| Nc1ncnc2c1c([C@H]1CCCO1)cn2-c1cncc(COc2ccc3ccc(N4CCC4)nc3c2)c1 [Compound I-144] |  |  | < 10 |  | < 1000 |
| CCNc1ccc2ccc(OCc3cncc(-n4cc([C@@H]5CCCO5)c5c(N)ncnc54)c3)cc2n1 [Compound I-146] |  |  | < 10 |  | < 1000 |
| CCc1cc(N2CCNCC2)c2ccc(OCc3cncc(-n4cc([C@@H]5CCCO5)c5c(N)ncnc54)c3)cc2n1 [Compound I-149] |  |  | < 10 |  | 1000 to 10000 |
| CCc1cc(N2CCOCC2)c2ncc(OCc3cncc(-n4cc(-c5ccn(C)n5)c5c(N)ncnc54)c3)cc2n1 [Compound I-150] |  |  | < 10 |  | < 1000 |
| CCc1cc(NCCOC)c2ncc(OCc3cncc(-n4cc([C@@H]5CCCO5)c5c(N)ncnc54)c3)cc2n1 [Compound I-152] |  |  | < 10 |  | < 1000 |
| CCc1cc(NC)c2ccc(OCc3cncc(-n4cc(-c5ccn(CCOC)n5)c5c(N)ncnc54)c3)cc2n1 [Compound I-154] |  |  | < 10 |  | < 1000 |
| CCNc1ccc2ccc(CCc3cncc(-n4cc([C@H]5CCCO5)c5c(N)ncnc54)c3)cc2n1 [Compound I-156] |  |  | < 10 |  | 1000 to 10000 |
| CCc1cc(N(C)C2CC2)c2ccc(OCc3cncc(-n4cc([C@@H]5CCCO5)c5c(N)ncnc54)c3)cc2n1 [Compound I-167] |  |  | < 10 |  | < 1000 |
| CN(CCO)c1ccc2ccc(OCc3cncc(-n4cc(-c5ccn(C)n5)c5c(N)ncnc54)c3)cc2n1 [Compound I-169] |  |  | < 10 | > 1000 | < 1000 |
| CCc1cc(NCCCN(C)C)c2ccc(OCc3cncc(-n4cc(-c5ccn(C)n5)c5c(N)ncnc54)c3)cc2n1 [Compound I-170] |  |  | < 10 | > 1000 | < 1000 |
| CS(=O)(=O)c1cn(-c2cncc(COc3ccc4ccc(N5CCC5)nc4c3)c2)c2ncnc(N)c12 [Compound I-185] |  |  | 10 to 100 | > 1000 | 1000 to 10000 |
| Cn1ccc(-c2cn(-c3cncc(COc4ccc5ccc(N6CC(F)C6)nc5c4)c3)c3ncnc(N)c23)n1 [Compound I-192] |  |  | < 10 | > 1000 | < 1000 |
| CNc1ccc2ccc(OCc3cccc(-n4ccc5c(N)ncnc54)c3F)cc2n1 [Compound I-226] | > 1000 | > 1000 | 10 to 100 | > 1000 |  |
| CCc1cc(NCCOC)c2c(F)cc(CCc3cncc(-n4cc(-c5ccn(C)n5)c5c(N)ncnc54)c3)cc2n1 [Compound I-228] |  |  | < 10 |  | < 1000 |
| CCc1cc(NCCOC)c2c(F)cc(OCc3cncc(-n4cc(-c5ccn(C)n5)c5c(N)ncnc54)c3)cc2n1 [Compound I-229] |  |  | < 10 |  | < 1000 |
| COCc1cn(-c2cncc(COc3ccc4ccc(N5CCC5)nc4c3)c2)c2ncnc(N)c12 [Compound I-237] |  |  | < 10 |  | 1000 to 10000 |
